Test results from patent US20250319115A1, “Compositions and Methods for Modulating Cytokines” (Flagship Pioneering Innovations VII, LLC, priority 2022, published 2025).

Legend:
[1] = test system: Peripheral Blood Mononuclear Cells (PBMCs); experiment: single cell RNA-seq of PBMCs treated with target protein; type: cell-based, human; settings: 10 μM, 24 hours, vs scrambled protein control
Protocol: (§1) To determine the effect of the Target Protein on TLR activity, the Target Protein, irrelevant proteins, and controls were applied+/−established TLR agonists to a commercial reporter cell line which monitors the two main signal transduction pathways that respond to TLR activation. To determine which primary, human, immune cells are most responsive to the Target Proteins, the Target Proteins were applied to Peripheral Blood Mononuclear Cells (PBMCs) and then 24 hours later the PBMCs were subjected to single cell RNA-seq.
scRNA-seq: From example: Shifts in cell populations after treatment with Target Proteins are assessed by single cell RNA-seq (scRNA-seq). Target proteins (e.g., listed in Table 1) are synthesized through Fluorenylmethyloxycarbonyl (Fmoc) protection group chemistry using Solid Phase Peptide Synthesis (SPPS). […]
Post sequencing, reads are aligned to the human reference genome (GENCODE34/GRCH38). Reads are demultiplexed using DNA-barcoded antibodies and run through quality control (g. doublets are removed, singlet cells are selected with less than 15% mitochondria contamination at RNA levels and reads contain higher than 500 genes). […]
scRNA-seq: From example: Shifts in cell populations after treatment with Target Proteins are assessed by single cell RNA-seq (scRNA-seq). […]

[2] = test system: Interferon Regulatory Factor (IRF) pathway; experiment: Dual Reporter Assay: NF-kB-SEAP and IRF-Lucia luciferase reporter monocyte (THP1) cells +/- TLR agonists; type: cell-based, human
Protocol: as §1
Dual Reporter Assay: NF-kB-SEAP and IRF-Lucia luciferase reporter monocyte (THP1) cells (InvivoGen) are cultured in RPMI 1640 media supplemented with HEPES buffer (10 mM), sodium pyruvate (1 mM), glucose (4.5 g/L), fetal bovine serum (10%), penicillin (100 U/mL), streptomycin ([…]), and 2-mercaptoethanol (0.05 mM). THP1 cells are treated with 100 ng/mL LPS (Sigma-Aldrich) for 24 hrs, the target protein (final conc. 10 μM), or left untreated.
After treatment, THP1 cells are cultured for 24 hrs and then assayed for reporter activity. Both reporter proteins are measurable in the cell culture supernatant when using QUANTI-Blue (InvivoGen), a SEAP detection reagent, and QUANTI-Luc (InvivoGen), a luciferase detection reagent. QUANTI-Blue is a colorimetric enzyme assay developed to determine any alkaline phosphatase activity in a biological sample, such as cell culture supernatant. QUANTI-Luc is a lyophilized assay reagent containing all the components required to quantitatively measure the activity of Lucia Luciferase other coelenterazine-utilizing luciferases. Increased reporter activity after treatment with target protein is observed in cells where the target protein is immune stimulating. Additionally, decreased reporter activity after treatment with the target protein is observed in cells where the target protein is immune dampening.
as §1, with “proteins” for “proteins,”

IL-15 signaling pathway = experiment: HEK-Blue IL-15 SEAP reporter assay; type: cell-based
Protocol: (§2) The effects of putative inhibitors on pro-inflammatory cytokine pathways are assessed using HEK-Blue cells engineered for the detection of bioactive cytokines via activation of JAK/STAT pathways and subsequent expression of the SEAP reporter gene. Cells are treated with their relevant cytokines+/−peptides or control antibodies, and 20 hours after treatment activation of the relevant cytokine receptor is determined via SEAP expression through mixing cell supernatants with a Quanti-Blue colorimetric reagent and measuring optical density at 600 nm.
(§3) Reporter lines HEK-Blue TL-4/TL-15/IFN-alpha were cultured in DMEM with GlutaMAX and 10% HI FBS (Gibco). […] After 24 hours, cells were treated with 10 μL of their relevant cytokines (StemCell Technologies) at the previously determined EC75 for activation (1.164 ng/mL for HEK-Blue IL-4, 2.26 ng/mL for HEK-Blue IL-15, and 0.456 ng/mL for HEK-Blue IFN-alpha), with or without 10 μL of peptides (5 uM final concentration) or control antibodies (1 ug/well). […]
(§4) 20-22 hours after treatment, 20 μL of the cell supernatants were collected and transferred to 96-well white flat opaque-bottom plates (Costar) and each sample was mixed with 180 μL of Quanti-Blue reagent. […] Assay plates were then removed from the incubator and the optical density of each well was measured at 600 nm on a GloMax plate reader. […]

IL-4 signaling pathway = experiment: HEK-Blue IL-4 SEAP reporter assay; type: cell-based
Protocol: as §2
Reporter lines HEK-Blue TL-4/TL-15/IFN-alpha were cultured in DMEM with GlutaMAX and 10% HI FBS (Gibco). Cells were seeded into black 96-well optical clear flat-bottomed PhenoPlates at densities of 25000 cells/well and 100 uL/well and allowed to rest overnight in a 37 C incubator with 5% CO2. After 24 hours, cells were treated with 10 μL of their relevant cytokines (StemCell Technologies) at the previously determined EC75 for activation (1.164 ng/mL for HEK-Blue IL-4, 2.26 ng/mL for HEK-Blue IL-15, and 0.456 ng/mL for HEK-Blue IFN-alpha), with or without 10 μL of peptides (5 uM final concentration) or control antibodies (1 ug/well). Cells were kept overnight in a 37 C incubator with 5% C02.
20-22 hours after treatment, 20 μL of the cell supernatants were collected and transferred to 96-well white flat opaque-bottom plates (Costar) and each sample was mixed with 180 μL of Quanti-Blue reagent. Colorimetric reactions were allowed to develop in a 37 C incubator with 5% C02 for a certain duration of time (3 hours for HEK-Blue IL-4, 2 hours for HEK-Blue IL-15, and 1 hour for IFN-alpha). Assay plates were then removed from the incubator and the optical density of each well was measured at 600 nm on a GloMax plate reader. Relative activation of the cytokine signaling pathway in question was determined by ratioing the optical density of each sample to the average optical density for the cytokine-only treated cells from the same plate.

[3] = test system: IFN-alpha signaling pathway; experiment: HEK-Blue IFN-alpha SEAP reporter assay; type: cell-based
Protocol: as §2, §3, §4

[4] = THP-1 dual reporter cells, protein 10 μM vs scramble protein, 24 hours
[5] = peptide 5 uM, cytokine at EC75, SEAP OD 600 nm

## SEQ ID NO: 6516: novel, secreted peptide that inhibits the innate immune response caused by toll-like receptor agonists (MAAPSNKTELAWSPRLAA; listed as Homo sapiens)
[1]
  effect on T-cells, B-cells, and NK-cells (up/downregulated genes, scRNA-seq): relatively small effects
  effect on active monocytes and dendritic cells (up/downregulated genes, scRNA-seq): strongly affected
[2]; THP-1 dual reporter cells, peptide 0, 2.5, 5, 7.5, and 10 μM in the presence of LPS, 24 hours
  relative IRF activity (reporter gene expression): inhibition
[2]; [4]
  IRF response, co-treated with TLR1/2 agonist: inhibited
  IRF response, co-treated with TLR2 agonist: no significant effect
  IRF response, co-treated with TLR3 agonist: no significant effect
  IRF response, co-treated with TLR4 agonist: inhibited
  IRF response, co-treated with TLR5 agonist: no significant effect
  IRF response, co-treated with TLR6/2 agonist: inhibited
  IRF response, co-treated with TLR7 agonist: no significant effect
  IRF response, co-treated with TLR8 agonist: no significant effect
  IRF response, co-treated with TLR9 agonist: no significant effect
[2]; reporter cell line +/- TLR agonists
  IRF signal transduction pathway response from several TLRs: significantly blocks

## SEQ ID NO: 1238_L8V: novel peptide capable of inhibiting pro-inflammatory cytokine pathways (LVVRWAVVVFRSSTAALPRAAEAARRSEKWPKTSALGRRS; listed as Homo sapiens)
IL-15 signaling pathway; [5]
  Relative activity (compared to cytokine only controls), Cytokine IL-15: −70%
IL-4 signaling pathway; FIG. 9
  inhibitor of the IL-4 signaling pathway (grade in words): strong

## SEQ ID NO: 6091: novel peptide capable of inhibiting pro-inflammatory cytokine pathways (IFLFLPIFSFPQIFLLLFYHLE; listed as Homo sapiens)
IL-15 signaling pathway; FIG. 10
  inhibitor of the IL-15 signaling pathway (grade in words): strong inhibitor
IL-4 signaling pathway; [5]
  Relative activity (compared to cytokine only controls), Cytokine IL-4: −40%

## SEQ ID NO: 3915: novel peptide capable of activating the signaling pathway for IFN-alpha (LRRAIWGLLCLMVAEENQEASLRKLAVRRKFWRLGRATQRYSVAW; listed as Homo sapiens)
[3]; FIG. 11
  activator of the IFN-alpha signaling pathway (grade in words): moderate activator
[3]; [5]
  Relative activity (compared to cytokine only controls), Cytokine IFN-a: +40%
